Laboratory results taken from PubChem BioAssay (NCI).
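Following 48 hours of exposure in 96-well plates, responses at five concentrations were used to interpolate endpoints linearly. At the GI50, growth is halved. TGI denotes the concentration required for complete inhibition of growth.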

Experiments:
Assay in all cases: NCI tumour cell line growth inhibition, 48 h
786-0 renal = tested on: 786-0 renal
A549 NSCLC = tested on: A549 NSCLC
ACHN renal = tested on: ACHN renal
HCT-116 colon = tested on: HCT-116 colon
HOP-92 NSCLC = tested on: HOP-92 NSCLC
NCI-H23 lung = tested on: NCI-H23 lung
SN12C renal = tested on: SN12C renal
TK-10 renal = tested on: TK-10 renal
SNB-75 CNS = tested on: SNB-75 CNS
PC-3 prostate = tested on: PC-3 prostate

Row | Compound | TGI (786-0 renal) [µM] | TGI (A549 NSCLC) [µM] | TGI (ACHN renal) [µM] | TGI (HCT-116 colon) [µM] | TGI (HOP-92 NSCLC) [µM] | TGI (NCI-H23 lung) [µM] | TGI (SN12C renal) [µM] | TGI (TK-10 renal) [µM] | TGI (SNB-75 CNS) [µM] | GI50 (786-0 renal) [µM] | GI50 (A549 NSCLC) [µM] | GI50 (ACHN renal) [µM] | GI50 (HCT-116 colon) [µM] | GI50 (NCI-H23 lung) [µM] | GI50 (PC-3 prostate) [µM] | TGI (PC-3 prostate) [µM] | GI50 (SN12C renal) [µM] | GI50 (SNB-75 CNS) [µM] | GI50 (TK-10 renal) [µM] | GI50 (HOP-92 NSCLC) [µM]
1 | Cc1ccc(NC(=O)CCC(=O)C(C#N)c2ccccc2)cc1C (stereo unspecified) | > 100 | > 100 | > 100 | > 100 | > 100 | > 100 | > 100 | > 100 | – | – | – | – | – | – | – | – | – | – | – | –
2 | C[n+]1c(N)n(C(=O)OCc2ccccc2)c(=O)c2c1ncn2C(=O)OCc1ccccc1 | > 100 | > 100 | > 100 | > 100 | – | > 100 | > 100 | > 100 | 65.9 | – | – | – | – | – | – | – | – | – | – | –
3 | NCP(=O)(O)OCC(=O)O | > 100 | > 100 | > 100 | > 100 | > 100 | > 100 | > 100 | > 100 | > 100 | – | – | – | – | – | – | – | – | – | – | –
4 | COc1ccc2c(c1)OCCC1=C2SCC2(C)CCN=C12 (stereo unspecified) | > 100 | > 100 | – | > 100 | – | > 100 | > 100 | > 100 | > 100 | – | – | – | – | – | – | – | – | – | – | –
5 | O=C(/C(=C/c1ccccc1)c1ccccc1)N1c2ccccc2CC1c1c[nH]c2ccccc12 (stereo unspecified) | > 100 | > 100 | > 100 | > 100 | > 100 | > 100 | > 100 | > 100 | > 100 | – | – | – | – | – | – | – | – | – | – | –
6 | COC(=O)Cc1nc2ccccc2o1 | > 100 | > 100 | > 100 | > 100 | > 100 | > 100 | > 100 | > 100 | > 100 | – | – | – | – | – | – | – | – | – | – | –
7 | CN(C)CC1CCCC/C1=N/OC(=O)c1ccc(Cl)c(Cl)c1 (stereo unspecified) | > 100 | > 100 | > 100 | > 100 | > 100 | > 100 | > 100 | > 100 | > 100 | – | – | – | – | – | – | – | – | – | – | –
8 | CCOC(=S)SCN1C(=O)c2ccccc2S1(=O)=O | 47.9 | 58.3 | 30.5 | 26.5 | – | 27.8 | 46.6 | > 100 | 29.6 | 20.9 | 23.9 | 16.8 | 13.6 | 12.6 | 33 | > 100 | 21 | 4.68 | 29.4 | –
9 | CCOC(=O)/N=c1/nc(N(C)C)ss1 | > 100 | > 100 | > 100 | > 100 | > 100 | > 100 | > 100 | > 100 | > 100 | – | – | – | – | – | – | – | – | – | – | –
10 | NS(=O)(=O)c1ccc(NC(=O)COC(=O)c2cccc3c(=O)c4ccccc4[nH]c23)cc1 | 45.3 | > 100 | 71.9 | > 74.9 | 38.6 | 60.5 | 90 | 77.1 | 38.5 | – | – | – | – | – | – | – | – | – | – | –
11 | C1CC[N-]CC1.CC(=N\O)/C(C)=N/O.CC(=N\O)/C(C)=N/O.[CH2-]CCN1CCOCC1.[Co+2] | > 100 | > 100 | > 100 | > 100 | > 100 | – | > 100 | > 100 | > 100 | > 100 | > 100 | > 100 | > 100 | – | > 100 | > 100 | > 100 | > 100 | > 100 | > 100
12 | COc1ccc(C(=O)O/N=C2/CCC/C2=C\c2ccccc2)cc1 | > 100 | > 100 | > 100 | > 100 | > 100 | > 100 | > 100 | > 100 | > 92.9 | – | – | – | – | – | – | – | – | – | – | –
13 | C=CCCC(=O)N1C=CC(=O)[C@H](O)[C@@H]1/C=C/c1ccccc1 | > 32.5 | > 32.5 | > 32.5 | > 32.5 | > 32.5 | > 32.5 | > 32.5 | > 32.5 | > 32.5 | 9.84 | 18.2 | 5.27 | 6.24 | 23.6 | – | – | 12.7 | 27.4 | 21.5 | 30.8
14 | Cn1ccnc1C[N-]Cc1nccn1C.O=[N+]([O-])[O-].O=[N+]([O-])[O-].[Cu+2] | > 100 | > 100 | – | > 100 | – | > 100 | > 100 | > 100 | > 100 | > 100 | > 100 | – | > 100 | > 100 | – | – | > 100 | > 100 | > 100 | –
15 | CO[C@H](C(=O)O)[C@@H]1Cc2cc3cc(OC4CC(OC5CC(O)C(O)C(C)O5)C(O)C(C)O4)c(C)c(O)c3c(O)c2C(=O)[C@H]1OC1CC(OC2CC(OC3CC(C)(O)C(O)C(C)O3)C(O)C(C)O2)C(O)C(C)O1 (stereo partly specified) | > 32.5 | > 32.5 | – | > 32.5 | 22.6 | 2.67 | > 32.5 | > 32.5 | 0.741 | 0.213 | 0.257 | – | 0.132 | 0.211 | 0.348 | > 32.5 | 0.179 | 0.128 | 1.45 | 0.0736
16 | COc1ccc2nc3cccc(C(=O)NCCN(C)C)c3nc2c1 | > 22.2 | > 100 | 6.78 | 2.6 | > 100 | 3.41 | 4.93 | 8.6 | 21.6 | – | – | – | – | – | – | – | – | – | – | –
17 | Cc1cc(O)c(C(c2ccncc2)c2c(O)cc(C)[nH]c2=O)c(=O)[nH]1 | > 100 | > 100 | > 100 | > 100 | – | > 100 | > 100 | > 100 | – | – | – | – | – | – | – | > 100 | – | – | – | –
18 | CN(C)CCNc1nc(-c2cccs2)cc(-c2cccs2)n1 | 30.4 | 32.4 | – | 23.4 | 8.7 | 25.7 | 27.4 | 29 | 68.2 | – | – | – | – | – | – | – | – | – | – | –
19 | COc1ccc(C2=NOP(c3ccccc3)(c3ccccc3)(c3ccccc3)C2)cc1 | > 53.4 | > 76.1 | > 100 | 21.4 | 53.2 | > 72.5 | > 100 | > 100 | > 89.4 | – | – | – | – | – | – | – | – | – | – | –
